Assay results: PMC7200681, “The calcitonin-like system is an ancient regulatory system of biomineralization” (Scientific Reports, 2020)

Tests used:
Set-up in all cases: species or system Mytilus galloprovincialis
[1] = test system: mussel mantle edge; assay: Ex-vivo incubation of mantle edge fragments, calcium quantification by MP-AES; details: 4 h at 19-20 °C; CALCIIa 10 μM or ouabain 2 mM alone; MP-AES at 393.366 nm; mean ± SEM; control 400.67 ±13.83 ppm; SEM
Protocol: Figure 7 Effect of the mussel calcitonin-like peptide on (A) calcium (ppm) concentration in the mantle edge and (B) calcium uptake by mantle cells of the Mediterranean mussel. (A) The quantity of calcium (ppm) present in the mantle edge after mussel CALCIIa peptide incubation was measured using a Microwave Plasma-Atomic Emission Spectrometer (MP-AES, Agilent) at 393.366 nm. A standard curve for calcium was performed before analysing the samples. In vitro mantle assays with CALCIIa peptide and with ouabain and control (culture medium and mantle) were repeated on at least 3 independent occasions. For each assay at least ten replicates were performed and the mantle edge distal to the umbo was used (one mantle fragment per replica). Prism GraphPad v5 software was used to assess the significance of differences between the groups using a One-way Anova and Tukey’s multiple comparison test. […] C - control (no peptide or ouabain); P - peptide (10 μM); O - ouabain (2 mM), OP - ouabain (2 mM) and peptide (10 μM); PreOP - pre -stimulation for 1 hour with the peptide followed by 4 hours incubation with OP. (B) Digital photographs of the mussel mantle cells in the presence (CALCIIa, 10 μM) or absence (control) of the mussel CALCIIa peptide. Calcium ions were stained with 50 mM of Calcein (green) and cell nuclei (blue) with DAPI (Acros Organics). An increase in cellular fluorescence represents an increase in calcium uptake. Fluorescence of the CALCIIa peptide stimulated cells was 1.9 times higher than the control. The average mantle cell size was 3–4 μm and fluorescent images were taken using a Leica DM IL microscope coupled to a Visicam HDMI 6 digital camera and photographs were analysed using ImageJ software (v. 1.52a) to calculate the fluorescence intensity and for image overlay. The scale bar is indicated.
The posterior mantle edge region of the Mediterranean mussel was collected and washed in culture medium. The composition of the culture medium was as described in[91] […]

[2] = test system: alpha-carbonic anhydrase (CA) esterase activity in mussel mantle edge; assay: Esterase (carbonic anhydrase) activity in mantle after ex-vivo incubation; details: after exposure to CALCIIa 10 μM or ouabain 2 mM; 4-Nitrophenyl acetate substrate; n = 6
Protocol: (§1) (A) Esterase activity and (B) Acid phosphatase activity. Enzyme activity was quantified in protein extracts from the mantle of control or challenged samples that were incubated with the mussel CALCIIa peptide. Values represent the mean ± SEM (CA, n = 6 and TRAP, n = 10) performed in duplicate. Prism GraphPad v5 software was used to assess the significance of the differences between the groups using One-way Anova and Tukey’s multiple comparison test. […] C - control; P - peptide (10 μM); O - ouabain (2 mM), OP - ouabain (2 mM) and peptide (10 μM); PreOP - pre stimulation for 1 hour with the peptide and 4 hours incubation with OP.
(§2) The posterior mantle edge region of the Mediterranean mussel was collected and washed in culture medium. The composition of the culture medium was as described in[91] […] The culture medium was supplemented with heat inactivated 2% FBS (SIGMA-ALDRICH), 0.1% penicillin: streptomycin antibiotic mix (10.000 U:10 mg/ml, SIGMA-ALDRICH) and 250 μg/ml sterile filtered 1:100 amphotericin B solution (Sigma-Aldrich). The posterior mantle edge from mussels was collected into culture medium and cut into fragments of approximately 1–2 mm in length. […]
Esterase activity in the mussel posterior mantle edge (n = 6/experimental group) was quantified using a colorimetric assay that measures the conversion of the substrate 4-Nitrophenyl acetate to p-nitrophenolate[92]. […]

[3] = test system: acid phosphatase (AP) activity in mussel mantle edge; assay: Acid phosphatase (TRAP) activity in mantle after ex-vivo incubation; details: after exposure to CALCIIa 10 μM or ouabain 2 mM; TRAP assay, pNPP, pH 5.3; p < 0.05
Protocol: as §1, §2
Acid phosphatase activity of the mantle protein extracts (n = 6/ group) was determined using 96 well-plates (GREINER, Germany) and a tartrate resistant acid phosphatase (TRAP) assay as described in[93].

Structure (SMILES): C[C@@H]1O[C@@H](O[C@H]2C[C@@H](O)[C@]3(CO)[C@H]4[C@H](O)C[C@]5(C)[C@@H](C6=CC(=O)OC6)CC[C@]5(O)[C@@H]4CC[C@]3(O)C2)[C@H](O)[C@H](O)[C@H]1O [Ouabain, ouabain]
- Calcium in the mantle edge after incubation [1]: 588.71 ± 42.92 ppm
- CA esterase activity in mantle edge (in words) [2]: neither of the bivalve CALCs or ouabain modified
- Acid phosphatase (AP) activity in mantle edge compared to control (in words) [3]: significantly decreased
